Measurements from patent US20210283110A1, “COMPOUND FOR USE IN THE TREATMENT OF A DISEASE CHARACTERIZED BY DYSREGULATED MUCUS PRODUCTION AND/OR SECRETION” (UNIVERSITÄT REGENSBURG, priority 2018, published 2021).

How the values were obtained:
colon = assay: Niclosamide applied in vivo (ip or gavage), then colon perfusion and PAS staining; design: species or system mouse; conditions: for ATP-induced release of mucus: three days before perfusion, 100 μM ATP
Description: FIG. 18: Effect of niclosamide on intestinal mucus release. • A) Acute mucus secretion in excised wt colon activated by methacholine or ATP, respectively, and inhibition by acute perfusion with niclosamide (niclosamide; 10 μM). • B-D) Effect of intraperitoneal injection of niclosamide (20 mg/kg/day) on PAS staining (B,C) and acute mucus discharge induced by perfusion with 100 μM ATP (D). • E-G) Effect of application of niclosamide by gavage (20 mg/kg/day) on PAS staining (E,F) and acute mucus discharge induced by perfusion with 100 μM ATP (G). Mean±SEM; #significant difference when compared to -niclosamide (unpaired t-test); (n) number of perfused colons and PAS stainings analyzed, respectively. Bars indicate 50 μm.
It was examined whether niclosamide inhibits intestinal mucus secretion. To this end, niclosamide was added to the perfusate. […] Niclosamide was applied in vivo by intraperitoneal (ip) injection, or was applied orally by gavage three days before intestinal perfusion. […] TMEM16F plays a crucial role for intracellular Ca^2+ signaling. The present inventors detected reduced Ca^2+ increase upon ATP-stimulation of freshly isolated crypt cells from Vil1-Cre TMEM16F^flox/flox mice. In contrast, CCH-induced Ca^2+ rise was not affected. […] Increase in FM4-64 fluorescence in the plasma membrane is a marker for membrane exocytosis. The present inventors detected that ATP-stimulation (but not cholinergic stimulation) of HEK293 cells expressing TMEM16F induced FM4-64 fluorescence, i.e. exocytosis.

TMEM16A = target: T1, TMEM16A (Homo sapiens, UniProt Q5XXA6); design: expressed in transfected cells; host or cells: HEK293 cells; conditions: Miner et al. [3]; cited from earlier work
T1 sequence (Q5XXA6 1-986): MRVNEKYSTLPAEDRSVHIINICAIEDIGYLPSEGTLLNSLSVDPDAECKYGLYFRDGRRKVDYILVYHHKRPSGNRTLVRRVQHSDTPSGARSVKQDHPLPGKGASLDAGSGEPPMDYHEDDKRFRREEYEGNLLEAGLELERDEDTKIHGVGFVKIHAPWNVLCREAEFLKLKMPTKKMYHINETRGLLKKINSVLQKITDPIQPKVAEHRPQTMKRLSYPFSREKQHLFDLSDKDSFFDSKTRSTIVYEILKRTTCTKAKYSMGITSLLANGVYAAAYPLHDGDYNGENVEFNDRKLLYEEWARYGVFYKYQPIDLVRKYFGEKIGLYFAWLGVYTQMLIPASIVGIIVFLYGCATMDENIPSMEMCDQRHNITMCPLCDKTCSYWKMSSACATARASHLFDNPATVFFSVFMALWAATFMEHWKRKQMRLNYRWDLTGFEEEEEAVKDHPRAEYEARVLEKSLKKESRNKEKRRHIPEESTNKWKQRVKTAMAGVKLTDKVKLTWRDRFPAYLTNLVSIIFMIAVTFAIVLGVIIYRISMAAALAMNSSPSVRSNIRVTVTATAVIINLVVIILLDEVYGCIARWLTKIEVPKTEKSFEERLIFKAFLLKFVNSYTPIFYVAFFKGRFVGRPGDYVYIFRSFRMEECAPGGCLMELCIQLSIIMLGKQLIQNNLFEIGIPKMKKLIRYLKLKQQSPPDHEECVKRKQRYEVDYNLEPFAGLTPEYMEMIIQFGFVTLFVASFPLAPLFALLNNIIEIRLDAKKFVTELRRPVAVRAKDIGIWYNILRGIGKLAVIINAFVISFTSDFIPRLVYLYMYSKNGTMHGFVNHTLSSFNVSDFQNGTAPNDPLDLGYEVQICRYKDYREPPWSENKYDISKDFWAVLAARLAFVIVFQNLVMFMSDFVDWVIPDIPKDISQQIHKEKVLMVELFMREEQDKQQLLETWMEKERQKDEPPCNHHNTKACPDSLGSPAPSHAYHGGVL

excised wt colon = assay: Acute mucus secretion in in vitro perfused excised colon, niclosamide in perfusate; design: species or system mouse; conditions: niclosamide 10 μM in perfusate
Excerpt: Cholinergic stimulation released mucus from freshly isolated TMEM16A+/+ and TMEM16A−/− intestine (FIG. 6D-F). Mucus release was examined in more detail by perfusing freshly excised colon and collecting released mucus in vitro. For in vitro perfusion of intestines, mice were sacrificed and excised intestines were placed immediately in ice-cold Ringer solution and carefully flushed to remove residual luminal contents. The intestinal segments were mounted and perfused vertically in a custom-designed perfusion chamber with a constant temperature.
It was examined whether TMEM16F is also important for intestinal mucus secretion and acute mucus release was measured in freshly excised colonic segments mounted in a vertical custom-designed perfusion chamber at 37° C. and 24 mmol/1 HCO3^−/5% CO2. Secretion of mucus was induced by basolateral perfusion with methacholine (MCh) and by luminal perfusion of ATP. […]
It was examined whether niclosamide inhibits intestinal mucus secretion. […] The present inventors detected reduced Ca^2+ increase upon ATP-stimulation of freshly isolated crypt cells from Vil1-Cre TMEM16F^flox/flox mice. […] Increase in FM4-64 fluorescence in the plasma membrane is a marker for membrane exocytosis. The present inventors detected that ATP-stimulation (but not cholinergic stimulation) of HEK293 cells expressing TMEM16F induced FM4-64 fluorescence, i.e. exocytosis.

O=C(Nc1ccc([N+](=O)[O-])cc1Cl)c1cc(Cl)ccc1O [niclosamide, 5-chloro-N-(2-chloro-4-nitrophenyl)-2-hydroxybenzamide]
ATP-induced release of mucus (colon; intraperitoneal injection 20 mg/kg/day): completely inhibited | mucus accumulation in goblet cells (PAS staining) (colon; ip or oral niclosamide): did not accumulate | ATP-induced release of mucus (colon; oral by gavage 20 mg/kg/day): completely inhibited | TMEM16A inhibition (TMEM16A): inhibitors of TMEM16A | mucus secretion activated by basolateral MCh (excised wt colon): not | mucus secretion activated by luminal ATP (excised wt colon): clearly inhibited
